Test results: patent US20030176314A1, “Compounds for the treatment of pain” (priority 2001, published 2003)

Biological target: T1, human α1A adrenergic receptor (Homo sapiens, UniProt P35348)
T1 construct: host or cells: LM(tk-) cells, line L-α1C
T1 sequence (P35348 1-466): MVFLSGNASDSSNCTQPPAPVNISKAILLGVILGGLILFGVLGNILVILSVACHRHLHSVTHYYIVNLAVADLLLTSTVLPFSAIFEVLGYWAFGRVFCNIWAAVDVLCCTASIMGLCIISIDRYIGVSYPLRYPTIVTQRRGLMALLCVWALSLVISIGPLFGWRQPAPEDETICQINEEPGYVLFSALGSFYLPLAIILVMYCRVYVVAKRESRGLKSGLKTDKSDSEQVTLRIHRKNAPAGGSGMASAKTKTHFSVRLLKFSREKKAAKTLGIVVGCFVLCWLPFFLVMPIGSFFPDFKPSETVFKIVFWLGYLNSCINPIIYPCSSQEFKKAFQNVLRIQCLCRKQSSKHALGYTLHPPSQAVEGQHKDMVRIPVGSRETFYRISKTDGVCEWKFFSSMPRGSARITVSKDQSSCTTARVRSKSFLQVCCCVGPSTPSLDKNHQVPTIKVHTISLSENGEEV
Assay: Binding at human α1A adrenergic receptor
Conditions: Table 8; read-out: hα1A Ki
Description: α1 Human Adrenergic Receptors: To determine the binding of compounds to human α1 receptors, LM(tk−) cell lines stably transfected with the genes encoding the α1a, α1b, and α1d receptors were used. The nomenclature describing the α1 receptors was changed recently, such that the receptor formerly designated α1a is now designated α1d, and the receptor formerly designated α1c is now designated α1a. The cell lines expressing these receptors were deposited with the ATCC before the nomenclature change and reflect the subtype designations formerly assigned to these receptors. Thus, the cell line expressing the receptor described herein as the α1a receptor was deposited with the ATCC on Sep. […] The cell line expressing receptor described herein as the α1d receptor was deposited with the ATCC on Sep. […] The cell line expressing the α1b receptor is designated L-α1B, and was deposited on Sep.
The binding affinity (Ki) of these compounds were tested according to the protocols described herein at the following receptors; human α1A, α1B, α1D, α2A, α2B, and α2C adrenergic receptors; human Y1, Y2, Y4, and Y5 receptors; and N-Methyl-D-aspartic acid (NMDA) receptor channels. The binding interactions of these compounds were additionally tested at the norepinephrine (NE) transporter (NE uptake) and serotonin (5-hydroxytryptamine (5HT)) transporter (5HT uptake) according to protocols described herein

SMILES: Cc1nc(NC(=N)N)nc2ccc3ccccc3c12 [Compound 1007A]
- Ki: 3.27 µM
